Assays:
Experiment in all cases: DSF thermal shift
Type in all cases: binding
Brd2(1) = biological target: T1, Brd2(1) (Homo sapiens, UniProt P25440); details: wild type
T1 construct: Plasmids of the eight single BET bromodomain constructs Brd2(1), Brd2(2), Brd3(1), Brd3(2); His6 (N); made in house; host or cells: E. coli BL21(DE3)

Brd2(2) = biological target: T2, Brd2(2) (Homo sapiens, UniProt P25440); details: wild type
T2 construct: Plasmids of the eight single BET bromodomain constructs Brd2(1), Brd2(2), Brd3(1), Brd3(2); His6 (N); made in house; host or cells: E. coli BL21(DE3)
T2 sequence (P25440 344-453 limits assumed): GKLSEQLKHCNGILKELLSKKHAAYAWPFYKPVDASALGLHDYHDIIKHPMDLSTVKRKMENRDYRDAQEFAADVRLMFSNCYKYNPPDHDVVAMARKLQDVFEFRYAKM

Brd4(1) = biological target: T3, Brd4(1) (Homo sapiens, UniProt O60885); details: wild type
T3 construct: Plasmids of the eight single BET bromodomain constructs Brd2(1), Brd2(2), Brd3(1), Brd3(2), Brd4(1), Brd4(2), Brdt(1) and Brdt(2); His6 (N); made in house; host or cells: E. coli BL21(DE3)

Brd4(2) = biological target: T4, Brd4(2) (Homo sapiens, UniProt O60885); details: wild type
T4 construct: Plasmids of the eight single BET bromodomain constructs Brd2(1), Brd2(2), Brd3(1), Brd3(2), Brd4(1), Brd4(2), Brdt(1) and Brdt(2); His6 (N); made in house; host or cells: E. coli BL21(DE3)

brd4(1)L094A = biological target: T5, brd4(1)L094A (Homo sapiens, UniProt O60885, L94A); details: mutant
T5 construct: Plasmids of the eight single BET bromodomain constructs Brd2(1), Brd2(2), Brd3(1), Brd3(2), Brd4(1), Brd4(2), Brdt(1) and Brdt(2); His6 (N); made in house; host or cells: E. coli BL21(DE3)

brd4(2)L387A = biological target: T6, brd4(2)L387A (Homo sapiens, UniProt O60885, L387A); details: mutant
T6 construct: Plasmids of the eight single BET bromodomain constructs Brd2(1), Brd2(2), Brd3(1), Brd3(2), Brd4(1), Brd4(2), Brdt(1) and Brdt(2); His6 (N); made in house; host or cells: E. coli BL21(DE3)

Brd2(1)*(Leu110-Ala) = Brd2(1)*(Leu110-Ala) (Homo sapiens, UniProt P25440, L110A); set-up: Plasmids of the eight single BET bromodomain constructs Brd2(1), Brd2(2), Brd3(1), Brd3(2); His6 (N); made in house; host or cells: E. coli BL21(DE3); details: mutant
Chain of Brd2(1)*(Leu110-Ala) (P25440 74-180 L110A limits assumed): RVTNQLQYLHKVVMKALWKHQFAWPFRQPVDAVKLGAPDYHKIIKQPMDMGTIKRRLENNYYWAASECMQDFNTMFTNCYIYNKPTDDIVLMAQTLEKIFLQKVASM
Description: (§1) DSF assays were performed on a LightCycler®480 from Roche or a Mx3005P Real Time PCR machine from Stratagene. […] SYPRO®Orange from Invitrogen Molecular Probes® was used as a reporter dye to monitor the denaturing process of the proteins. Samples were assayed on a 96-well plate with final protein concentrations of 2 μM for the LightCycler®480 and 6 μM for Mx3005P. Compounds were added at a final concentration of 10 μM for the LightCycler®480 and 30 μM for Mx3005P, while the tetra acetylated histone peptide was added to a final concentration of 100 μM and 300 μM respectively. […] The temperature was raised with a step of 0.6° C. per minute from 37° C. to 95° C. with the LightCycler®480 collecting 39 measurements per ° C., and 1° C. per minute from 25° C. to 95° C. with Mx3005P, collecting fluorescence readings at the end of each interval. Each sample was run in triplicates.
(§2) Collected data was analysed by IGOR Pro 6, a scientific software tool from Wave Metrics, Inc. Analysis was done following the recommendations of Niesen et al.. Fluorescence intensity was plotted as a function of temperature, generating a sigmoidal curve described by a two-state transition from folded to unfolded protein. Curves were fitted by the following sigmoidal equation: […]
(§3) A1 and A2 are the values of minimum and maximum intensities, respectively, x0 is the inflection point and dx is the rate. Fitted curves were differentiated in IGOR Pro 6 and the maximum of the first derivative was identified using the same program. These values correspond to the inflection points of the transition curves and thus to the melting temperatures of the proteins (Tm).

Brd2(2)*(Leu383-Ala) = Brd2(2)*(Leu383-Ala) (Homo sapiens, UniProt P25440, L383A); set-up: Plasmids of the eight single BET bromodomain constructs Brd2(1), Brd2(2), Brd3(1), Brd3(2); His6 (N); made in house; host or cells: E. coli BL21(DE3); details: mutant
Chain of Brd2(2)*(Leu383-Ala) (P25440 344-453 L383A limits assumed): as the sequence (P25440 344-453 limits assumed) above, with L40A counted along it
Description: as §1, §2, §3

Brd2(1)*(Val103-Ala) = biological target: T7, Brd2(1)*(Val103-Ala) (Homo sapiens, UniProt P25440, V103A); details: mutant
T7 construct: Plasmids of the eight single BET bromodomain constructs Brd2(1), Brd2(2), Brd3(1), Brd3(2); His6 (N); made in house; host or cells: E. coli BL21(DE3)
T7 sequence (P25440 74-180 V103A limits assumed): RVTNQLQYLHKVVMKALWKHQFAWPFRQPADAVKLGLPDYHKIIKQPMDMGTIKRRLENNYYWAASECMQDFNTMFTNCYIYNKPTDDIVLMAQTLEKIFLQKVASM

Brd2(2)*(Val376Ala) = biological target: T8, Brd2(2)*(Val376Ala) (Homo sapiens, UniProt P25440, V376A); details: mutant
T8 construct: Plasmids of the eight single BET bromodomain constructs Brd2(1), Brd2(2), Brd3(1), Brd3(2); His6 (N); made in house; host or cells: E. coli BL21(DE3)
T8 sequence (P25440 344-453 V376A limits assumed): as the sequence (P25440 344-453 limits assumed) above, with V33A counted along it

T1 sequence (P25440 74-180 limits assumed): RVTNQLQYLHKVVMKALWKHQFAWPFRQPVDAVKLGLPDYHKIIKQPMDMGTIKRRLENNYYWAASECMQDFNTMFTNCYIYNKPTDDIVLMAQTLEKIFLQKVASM

## CCC[C@H](C(=O)OC)[C@@H]1N=C(c2ccc(Cl)cc2)c2cc(OC)ccc2-n2c(C)nnc21 (racemic) [Compound 15, (+−)-Methyl (S)-2-((S)-6-(4-chlorophenyl)-8-methoxy-1-methyl-4H-benzo[f][1,2,4]triazolo[4,3-a][1,4]diazepin-4-yl)pentanoate]
Brd2(1)
  ΔTm Brd2(1): 0.1 ± 0.3 K
Brd2(2)
  ΔTm Brd2(2): 0.5 ± 0.2 K
Brd4(1)
  ΔTm Brd4(1): 0.6 ± 1.1 K
Brd4(2)
  ΔTm Brd4(2): −0.5 ± 1.1 K
brd4(1)L094A
  ΔTm Brd4(1)* (L094A): 2.4 ± 1.3 K
brd4(2)L387A
  ΔTm Brd4(2)* (L387A): 1.6 ± 0.3 K
Brd2(1)*(Leu110-Ala)
  ΔTm Brd2(1)*(Leu110-Ala): 0.9 ± 0.6 K
Brd2(2)*(Leu383-Ala)
  ΔTm Brd2(2)*(Leu383-Ala): 1.4 ± 0.2 K

## COC(=O)[C@@H](CC1CC1)[C@@H]1N=C(c2ccc(Cl)cc2)c2cc(OC)ccc2-n2c(C)nnc21 (racemic) [Compound 16, (+−)-methyl (S)-2-((S)-6-(4-chlorophenyl)-8-methoxy-1-methyl-4H-benzo[f][1,2,4]triazolo[4,3-a][1,4]diazepin-4-yl)-3-cyclopropylpropanoate]
Brd2(1)
  ΔTm Brd2(1): −0.5 ± 0.6 K
Brd2(2)
  ΔTm Brd2(2): 1.1 ± 0.3 K
Brd4(1)
  ΔTm Brd4(1): −0.4 ± 0.5 K
Brd4(2)
  ΔTm Brd4(2): 0.3 ± 0.9 K
brd4(1)L094A
  ΔTm Brd4(1)* (L094A): 1.3 ± 0.2 K
brd4(2)L387A
  ΔTm Brd4(2)* (L387A): 0.1 ± 0.1 K
Brd2(1)*(Leu110-Ala)
  ΔTm Brd2(1)*(Leu110-Ala): 1.6 ± 1.0 K
Brd2(2)*(Leu383-Ala)
  ΔTm Brd2(2)*(Leu383-Ala): 2.3 ± 0.3 K

## COC(=O)CC1N=C(c2ccc(Cl)cc2)c2cc(OC)cc(C)c2-n2c(C)nnc21 (stereo not drawn) [Compound 4, Methyl 2-(6-(4-chlorophenyl)-8-methoxy-1,10-dimethyl-4H benzo[f][1,2,4]triazolo[4,3-a][1,4]diazepin-4-yl)acetate]
Brd2(1)
  Thermal stabilisation brd2(1): 0.7 ± 0.2 °C
  ΔTm Brd2(1): 0.7 ± 0.2 K
Brd2(1)*(Val103-Ala)
  Thermal stabilisation brd2(1)V103A: 0.5 ± 0.3 °C
  ΔTm Brd2(1)*(Val103-Ala): 0.5 ± 0.3 K
Brd2(2)
  Thermal stabilisation brd2(2): 4.0 ± 0.1 °C
  ΔTm Brd2(2): 4.0 ± 0.1 K
Brd2(2)*(Val376Ala)
  Thermal stabilisation brd2(2)V376A: 1.2 ± 0.1 °C
  ΔTm Brd(2)*(Val376-Ala): 1.2 ± 0.1 K

— patent US20170122958A1, “Enzymes Functional Probes” (University of Dundee, priority 2013, published 2017)
